Experimental data taken from ChEMBL document CHEMBL4033759, “Photoaffinity Labeling of the Human A2A Adenosine Receptor and Cross-link Position Analysis by Mass Spectrometry” (ACS Med Chem Lett, 2017).

Experiments:
[1] = target: T1, Adenosine receptor A2a (Homo sapiens, UniProt P29274); assay: Displacement of MRS5346 from C-terminal 10xHis and 1D4-tagged C-terminal-truncated human A2A adenosine receptor (1 to 316 residues) expressed in Pichia pastoris expression system after 1 hr by fluorescence polarization assay
T1 sequence (P29274 whole entry, the tested form may be a part): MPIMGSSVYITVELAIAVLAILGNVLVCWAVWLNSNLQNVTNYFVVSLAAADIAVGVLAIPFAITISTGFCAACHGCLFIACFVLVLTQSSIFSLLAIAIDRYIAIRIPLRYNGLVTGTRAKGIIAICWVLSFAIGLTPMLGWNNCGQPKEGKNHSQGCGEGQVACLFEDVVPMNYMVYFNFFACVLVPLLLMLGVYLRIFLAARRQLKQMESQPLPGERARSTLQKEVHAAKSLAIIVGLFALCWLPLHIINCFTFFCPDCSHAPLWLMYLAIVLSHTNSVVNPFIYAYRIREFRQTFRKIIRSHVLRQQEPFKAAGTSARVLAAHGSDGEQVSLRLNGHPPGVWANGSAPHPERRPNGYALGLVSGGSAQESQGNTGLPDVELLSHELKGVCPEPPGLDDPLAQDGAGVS

[2] = target: T1, Adenosine receptor A2a; assay: Binding affinity to C-terminal 10xHis and 1D4-tagged C-terminal-truncated human A2A adenosine receptor (1 to 316 residues) expressed in Pichia pastoris expression system at 8 nM after 1 hr by fluorescence polarization assay; details: read-out: Kd(app)
[3] = target: T1, Adenosine receptor A2a; assay: Binding affinity to human A2A adenosine receptor expressed in HEK293 cells after 1 hr by fluorescence polarization assay; assay type: cell-based
[4] = target: T1, Adenosine receptor A2a; assay: Binding affinity to C-terminal 10xHis and 1D4-tagged C-terminal-truncated human A2A adenosine receptor (1 to 316 residues) expressed in Pichia pastoris expression system at 4 nM after 1 hr by fluorescence polarization assay; details: read-out: Kd(app)
[5] = target: T1, Adenosine receptor A2a; assay: Binding affinity to C-terminal 10xHis and 1D4-tagged C-terminal-truncated human A2A adenosine receptor (1 to 316 residues) expressed in Pichia pastoris expression system at 2 nM after 1 hr by fluorescence polarization assay; details: read-out: Kd(app)
[6] = target: T1, Adenosine receptor A2a; assay: Binding affinity to C-terminal 10xHis and 1D4-tagged C-terminal-truncated human A2A adenosine receptor (1 to 316 residues) expressed in Pichia pastoris expression system at 1 nM after 1 hr by fluorescence polarization assay; details: read-out: Kd(app)

Row | Ki [1] | Kd [2] | Kd [3] | Kd [4] | Kd [5] | Kd [6] | SMILES
1 | 0.0397 µM | – | – | – | – | – | Nc1nc2nn(Cc3ccc(C4(C(F)(F)F)N=N4)cc3)cc2c2nc(-c3ccco3)nn12
2 | – | 0.0495 µM | 0.0165 µM | 0.0424 µM | 0.0308 µM | 0.029 µM | N=c1ccc2c(-c3ccc(C(=O)NCCNC(=O)COc4ccc(CCCn5ncc6c5nc(N)n5nc(-c7ccco7)nc65)cc4)cc3C(=O)O)c3ccc(N)c(S(=O)(=O)O)c3oc-2c1S(=O)(=O)O
3 | 1.52 µM | – | – | – | – | – | Nc1nc2c(cnn2Cc2ccc(C3(C(F)(F)F)N=N3)cc2)c2nc(-c3ccco3)nn12
